Laboratory results from ChEMBL document CHEMBL4196087 (Eur J Med Chem, 2018).
≈ marks a conversion by molar mass, not a printed value.

Tests used:
HOP-92 = experiment: Growth inhibition of human HOP92 cells at 10^-5 M incubated for 48 hrs by sulforhodamine B assay relative to control; type: functional; settings: HOP-92, 48 h, read-out: GI
LOX IMVI = experiment: Growth inhibition of human LOXIMVI cells at 10^-5 M incubated for 48 hrs by sulforhodamine B assay relative to control; type: functional; settings: read-out: GI
MOLT-4 = experiment: Growth inhibition of human MOLT4 cells at 10^-5 M incubated for 48 hrs by sulforhodamine B assay relative to control; type: functional; settings: MOLT-4, 48 h, read-out: GI
PC-3 = experiment: Growth inhibition of human PC3 cells at 10^-5 M incubated for 48 hrs by sulforhodamine B assay relative to control; type: functional; settings: PC-3, 48 h, read-out: GI
UO-31 [1] = experiment: Growth inhibition of human UO31 cells at 10^-5 M incubated for 48 hrs by sulforhodamine B assay relative to control; type: functional; settings: UO-31, 48 h, read-out: GI
T47D = experiment: Growth inhibition of human T47D cells at 10^-5 M incubated for 48 hrs by sulforhodamine B assay relative to control; type: functional; settings: read-out: GI
SK-OV-3 = experiment: Growth inhibition of human SKOV3 cells at 10^-5 M incubated for 48 hrs by sulforhodamine B assay relative to control; type: functional; settings: SK-OV-3, 48 h, read-out: GI
HOP-62 = experiment: Growth inhibition of human HOP62 cells at 10^-5 M incubated for 48 hrs by sulforhodamine B assay relative to control; type: functional; settings: HOP-62, 48 h, read-out: GI
Escherichia coli = experiment: Antibacterial activity against Escherichia coli at 37 degC measured after 24 hrs by agar disc diffusion method; type: functional
MDA-MB-468 [2] = experiment: Potency index, ratio of doxorubicin IC50 to compound IC50 for antiproliferative activity against human MDA-MB-468 cells; type: functional
A498 = experiment: Growth inhibition of human A498 cells at 10^-5 M incubated for 48 hrs by sulforhodamine B assay relative to control; type: functional; settings: A498, 48 h, read-out: GI
MDA-MB-468 [3] = experiment: Antiproliferative activity against human MDA-MB-468 cells after 48 hrs by SRB assay; type: functional; settings: MDA-MB-468, 48 h, read-out: LC50 (the source's name)
SNB-75 = experiment: Growth inhibition of human SNB75 cells at 10^-5 M incubated for 48 hrs by sulforhodamine B assay relative to control; type: functional; settings: SNB-75, 48 h, read-out: GI
SF-539 = experiment: Growth inhibition of human SF539 cells at 10^-5 M incubated for 48 hrs by sulforhodamine B assay relative to control; type: functional; settings: SF-539, 48 h, read-out: GI
UO-31 [4] = experiment: Potency index, ratio of doxorubicin IC50 to compound IC50 for antiproliferative activity against human UO31 cells; type: functional
IGROV-1 = experiment: Growth inhibition of human IGROV1 cells at 10^-5 M incubated for 48 hrs by sulforhodamine B assay relative to control; type: functional; settings: IGROV-1, 48 h, read-out: GI
NCI-H226 = experiment: Growth inhibition of human NCI-H226 cells at 10^-5 M incubated for 48 hrs by sulforhodamine B assay relative to control; type: functional; settings: NCI-H226, 48 h, read-out: GI
Staphylococcus aureus = experiment: Antibacterial activity against Staphylococcus aureus at 37 degC measured after 24 hrs by agar disc diffusion method; type: functional
MDA-MB-231 = experiment: Growth inhibition of human MDA-MB-231 cells at 10^-5 M incubated for 48 hrs by sulforhodamine B assay relative to control; type: functional; settings: MDA-MB-231, 48 h, read-out: GI
UO-31 [5] = experiment: Antiproliferative activity against human UO31 cells after 48 hrs by MTT assay; type: functional, cell-based; settings: UO-31, 48 h
UO-31 [6] = experiment: Antiproliferative activity against human UO31 cells after 48 hrs by SRB assay; type: functional; settings: UO-31, 48 h
Bacillus subtilis [7] = experiment: Antibacterial activity against Bacillus subtilis at 37 degC measured after 24 hrs by agar disc diffusion method; type: functional
MCF7 = experiment: Growth inhibition of human MCF7 cells at 10^-5 M incubated for 48 hrs by sulforhodamine B assay relative to control; type: functional; settings: MCF7, 48 h, read-out: GI
RPMI-8226 = experiment: Growth inhibition of human RPMI8226 cells at 10^-5 M incubated for 48 hrs by sulforhodamine B assay relative to control; type: functional; settings: RPMI-8226, 48 h, read-out: GI
CCRF-CEM = experiment: Growth inhibition of human CCRF-CEM cells at 10^-5 M incubated for 48 hrs by sulforhodamine B assay relative to control; type: functional; settings: read-out: GI
MDA-MB-468 [8] = experiment: Antiproliferative activity against human MDA-MB-468 cells after 48 hrs by MTT assay; type: functional, cell-based; settings: MDA-MB-468, 48 h
Pseudomonas aeruginosa [9] = experiment: Antibacterial activity against Pseudomonas aeruginosa at 37 degC measured after 24 hrs by agar disc diffusion method; type: functional
SK-MEL-5 = experiment: Growth inhibition of human SK-MEL-5 cells at 10^-5 M incubated for 48 hrs by sulforhodamine B assay relative to control; type: functional; settings: SK-MEL-5, 48 h, read-out: GI
HL-60(TB) = experiment: Growth inhibition of human HL-60(TB) cells at 10^-5 M incubated for 48 hrs by sulforhodamine B assay relative to control; type: functional; settings: HL-60, 48 h, read-out: GI
MDA-MB-468 [10] = experiment: Growth inhibition of human MDA-MB-468 cells at 10^-5 M incubated for 48 hrs by sulforhodamine B assay relative to control; type: functional; settings: MDA-MB-468, 48 h, read-out: GI
K562 = experiment: Growth inhibition of human K562 cells at 10^-5 M incubated for 48 hrs by sulforhodamine B assay relative to control; type: functional; settings: K562, 48 h, read-out: GI
HL-60 [11] = experiment: Antiproliferative activity against human HL60 cells after 48 hrs by MTT assay; type: functional, cell-based; settings: HL-60, 48 h
Pseudomonas aeruginosa [12] = experiment: Antibacterial activity against Pseudomonas aeruginosa at 37 degC measured after 24 hrs by CLSI M7-A4 protocol based method; type: functional
HL-60 [13] = experiment: Potency index, ratio of doxorubicin IC50 to compound IC50 for antiproliferative activity against human HL60 cells; type: functional
Bacillus subtilis [14] = experiment: Antibacterial activity against Bacillus subtilis at 37 degC measured after 24 hrs by CLSI M7-A4 protocol based method; type: functional
HL-60 [15] = experiment: Antiproliferative activity against human HL60 cells after 48 hrs by SRB assay; type: functional; settings: HL-60, 48 h, read-out: LC50 (the source's name)

Compound | inhibition of growth at 10 µM (HOP-92) | inhibition of growth at 10 µM (LOX IMVI) | inhibition of growth at 10 µM (MOLT-4) | inhibition of growth at 10 µM (PC-3) | inhibition of growth at 10 µM (UO-31 [1]) | inhibition of growth at 10 µM (T47D) | inhibition of growth at 10 µM (HOP-62) | diameter of the inhibition zone (DIZ) (Escherichia coli) | inhibition of growth at 10 µM (A498) | inhibition of growth at 10 µM (SNB-75) | inhibition of growth at 10 µM (SF-539) | inhibition of growth at 10 µM (IGROV-1) | inhibition of growth at 10 µM (NCI-H226) | diameter of the inhibition zone (DIZ) (Staphylococcus aureus) | inhibition of growth at 10 µM (MDA-MB-231) | diameter of the inhibition zone (DIZ) (Bacillus subtilis [7]) | inhibition of growth at 10 µM (MCF7) | inhibition of growth at 10 µM (RPMI-8226) | inhibition of growth at 10 µM (CCRF-CEM) | diameter of the inhibition zone (DIZ) (Pseudomonas aeruginosa [9]) | further results
CSc1nnc(CN2CCN(c3cc4c(cc3F)c(=O)c(C(=O)O)cn4C3CC3)CC2)o1 | < 20% | < 20% | < 20% | 24.9% | < 20% | 21.1% | < 20% |  |  |  |  |  |  |  |  |  |  |  |  |  | inhibition of growth at 10 µM (SK-OV-3): < 20%
O=C(CN1CCN(c2cc3c(cc2F)c(=O)c(C(=O)O)cn3C2CC2)CC1)N/N=C/c1ccccc1C(F)(F)F | 35.9% | 32.3% | 27.3% | 24.9% | 37.4% | 25.1% | < 20% | 26 mm | 20.7% | 29.9% | 22.5% | 33.4% | < 20% | 25 mm | 23.6% | 28 mm | < 20% | 25% | < 20% | 25 mm | Ratio IC50 (MDA-MB-468 [2]): 1.3; CC50 (MDA-MB-468 [3]): 15.6 µM; Ratio IC50 (UO-31 [4]): 1.5 - 9; IC50 (UO-31 [5]): 4.92 µM; LC50 (UO-31 [6]): 15.9 µM; IC50 (MDA-MB-468 [8]): 2.16 µM; inhibition of growth at 10 µM (SK-MEL-5): 22.1%; inhibition of growth at 10 µM (HL-60(TB)): < 20%; inhibition of growth at 10 µM (MDA-MB-468 [10]): 34.7%; inhibition of growth at 10 µM (K562): 21.2%
O=C(CN1CCN(c2cc3c(cc2F)c(=O)c(C(=O)O)cn3C2CC2)CC1)N/N=C/c1c[nH]c2ccccc12 | < 20% | < 20% | 24.6% | < 20% | 28.3% | < 20% | < 20% | 31 mm | < 20% | < 20% | < 20% | < 20% | < 20% | 31 mm | 20.9% | 37 mm | 27.1% | < 20% | 54.4% | 33 mm | IC50 (HL-60 [11]): 1.55 µM; MIC (Pseudomonas aeruginosa [12]): 30 µg/mL (≈ 56.5 µM); Ratio IC50 (HL-60 [13]): 5.7; MIC (Bacillus subtilis [14]): 58 µg/mL (≈ 109 µM); inhibition of growth at 10 µM (SK-MEL-5): < 20%; CC50 (HL-60 [15]): 15.9 µM; inhibition of growth at 10 µM (HL-60(TB)): 43%; inhibition of growth at 10 µM (MDA-MB-468 [10]): < 20%; inhibition of growth at 10 µM (K562): < 20%
